According to US20210267872A1, “Delivery Of Cosmetic Agents, Compositions And Use Thereof” (ELC Management LLC, priority 2020, published 2021):

Assays:
[1] = system: MatTek 300 skin; assay: Skin penetration study (Franz Cell) using MatTek skin; assay type: in vitro ADME; conditions: for enhancement of penetration of AA2G over control: p value greater than 0.05
Protocol: In a 6-well plate, MatTek 300 skin (a skin modeling constructed by live cells, obtained from MatTek) was placed in well with 2.00 mL of incubation medium (also provide by MatTek). To the top of the skin, 400 ul of the sample was loaded. The skin was then incubated at 37° C. At 3 hours and 6 hours, the incubation medium was collected, and another 2.00 mL of medium was added into the well. The skin was then incubated until 24 hours. Finally, the medium was collected at 24 hours' time point. The collected mediums were filtered through a 0.45 um PTFE syringe filter into HPLC vials. The samples were then submitted to the UPLC study.
Waters ACQUITY H UPLC was used to analyze the collected samples from the penetration study (Franz Cell study).

[2] = Skin PAMPA study; assay type: in vitro ADME
Protocol: In vitro delivery of active ingredients in a formulation was evaluated using a skin PAMPA study. Active ingredients and pulverized thin fibers were added to the formulation and tested for permeation using PAMPA SC membrane for polar compounds. The following samples were prepared. Formulations are provided in Table 3 in percentages. • Formula 1 as shown in Table 3. • Formula 2: Formula 1 and 1% of microcrystalline cellulose (9 μm). • Formula 3: Formula 1 and the maximum amount of 1% dispersion (cellulose acetate fibers in water). • Formula 4: Formula 1 and 1% of microcrystalline cellulose (9 μm) and the maximum amount of 1% dispersion (cellulose acetate fibers in water).

enhancement of penetration of AA2G over control ([1]; six hours, formula containing cellulose acetate chopped fibers vs control without fiber)	enhancement of penetration of AA2G over control ([1]; three hours, formula containing cellulose acetate chopped fibers vs control without fiber)	enhancement of penetration of AA2G over control (difference) ([1]; twenty-four hours, formula containing cellulose acetate chopped fibers vs control without fiber)	delivery/penetration of AA2G into the skin in the presence of cellulose acetate chopped fibers ([1]; vs formulation without fiber, initial 6 hours after loading)	permeated amount of AA2G, FIG. 2B ([2]; span over all formulas shown)	Structure (SMILES)	percentage % penetration of caffeine compared with AA2G [1]	penetration of caffeine in the presence of cellulose acetate chopped fibers (summary) ([1]; PAMPA)	enhancement of penetration of caffeine by addition of chopped fiber ([1]; human, 6 h)	permeation of caffeine in the presence of chopped fibers compared to the control, FIG. 4B ([2]; composition comprising chopped fibers)	permeating amount of caffeine, FIG. 4A ([2]; six hours, cellulose acetate nanofiber)
30%	33%	less than 10%	enhanced	0 to 300 μg/cm2	O=C1O[C@H]([C@@H](O)CO)C(O)=C1O[C@H]1O[C@H](CO)[C@@H](O)[C@H](O)[C@H]1O [AA2G, ascorbic acid 2-glucoside]					
					Cn1c(=O)c2c(ncn2C)n(C)c1=O [caffeine]	greater than that of AA2G	slightly enhanced	< 10%	doubling	slightly increased
